This passage reports inhibition and Ki results from ChEMBL document CHEMBL1128769, “Structure-activity relationships of tricyclic quinoxalinediones as potent antagonists for the glycine binding site of the NMDA receptor 2” (Bioorg Med Chem Lett, 1995).

In general, inhibition refers to the percentage by which the read-out fell short of the control. The low end stands for little suppression, the high end for strong suppression. A word on the pKi: it is −log10 of the Ki, conventionally taken in molar units. Low readings indicate a high Ki, high ones a low Ki.

Molecules are shown by their SMILES. pKi: −log10 of the molar value.

Experiment [1] has as its target Glutamate receptor ionotropic, NMDA 1 (Rattus norvegicus) (UniProt P35439). Kind of experiment: Percent inhibition of [3H]- 5,7- dichloro -kynurenic acid binding to glycine binding site of NMDA receptor at 10 ng/mL.
The target of experiment [2] is Glutamate receptor ionotropic, NMDA 1 (Rattus norvegicus, UniProt P35439). Description: Affinity for the glycine binding site of the NMDA receptor using [3H]- 5,7- dichloro -kynurenic acid as radio-ligand.
The target in experiment [3] is Glutamate receptor ionotropic, NMDA 1 (Rattus norvegicus) (UniProt P35439). Kind of experiment: Percent inhibition of binding affinity for the glycine binding site of the NMDA receptor using [3H]5,7- dichloro -kynurenic acid at a concentration of 10 ng/mL.

In experiment [1], `O=C(CC1CCc2cc(Br)cc3[nH]c(=O)c(=O)n1c23)Nc1ccc(C(F)(F)F)cc1` (stereo not given) had an inhibition of 1%.

For `Nc1ccc(NC(=O)CC2CCc3cc(Br)cc4[nH]c(=O)c(=O)n2c34)cc1` (stereo not given), in experiment [1], the inhibition came out at 76.4%. In turn, `O=C(CC1CCc2cc(Br)cc3[nH]c(=O)c(=O)n1c23)NC1CCCCC1` (stereo not given) showed an inhibition in experiment [1] of 23.8%.

`O=C(CC1CCc2cc(Cl)cc3[nH]c(=O)c(=O)n1c23)Nc1ccccc1` (stereo not given) had an inhibition in experiment [1] of 79.3%. This compound had a pKi in experiment [2] of 8.18.

In turn, `C[C@H]1Cc2cc(Cl)cc3[nH]c(=O)c(=O)n(c23)C1CC(=O)Nc1ccccc1` (stereo not given in full) showed a pKi in experiment [2] of 8.51.

The compound `CC(=O)Nc1ccc(NC(=O)CC2CCc3cc(Br)cc4[nH]c(=O)c(=O)n2c34)cc1` (stereo not given) returned an inhibition in experiment [1] of 73%. Same read-out and setting: as for `Cc1ccc(NC(=O)CC2CCc3cc(Br)cc4[nH]c(=O)c(=O)n2c34)cc1` (stereo not given), the figure is 83.3%. Still for that read-out and setting: as for `COc1ccc(NC(=O)CC2CCc3cc(Br)cc4[nH]c(=O)c(=O)n2c34)cc1` (stereo not given), the figure is 67.5%. In experiment [1], `O=C(CC1CCc2cc(I)cc3[nH]c(=O)c(=O)n1c23)Nc1ccccc1` (stereo not given) gave an inhibition of 46.7%. In experiment [2], this compound showed a pKi of 6.87. The compound `O=C(O)CC1CCc2cc(Cl)cc3[nH]c(=O)c(=O)n1c23` (stereo not given) gave an inhibition in experiment [1] of 90.3%. In experiment [2], this compound showed a pKi of 8.29.

`N#Cc1ccc(NC(=O)CC2CCc3cc(Br)cc4[nH]c(=O)c(=O)n2c34)cc1` (stereo not given) registered an inhibition in experiment [3] of 3.8%. Consider `O=C(O)CC1CCc2cc(Br)cc3[nH]c(=O)c(=O)n1c23` (stereo not given), for which the inhibition in experiment [1] is 68.7%. Moreover, the pKi in experiment [2] was 8.00. In turn, `C[C@H]1Cc2cc(Cl)cc3[nH]c(=O)c(=O)n(c23)C1CC(=O)O` (stereo not given in full) gave a pKi in experiment [2] of 8.36. In experiment [3], `O=C(CC1CCc2cccc3[nH]c(=O)c(=O)n1c23)Nc1ccccc1` (stereo not given) came in with an inhibition of 52.7%.

Take `O=C(O)CC1CCc2cc(I)cc3[nH]c(=O)c(=O)n1c23` (stereo not given): in experiment [1], the inhibition stood at 76.2%. Also, the pKi in experiment [2] was 7.33.

Take `O=C(CC1CCc2cc(Br)cc3[nH]c(=O)c(=O)n1c23)Nc1ccccc1` (stereo not given): in experiment [1], the inhibition came to 92.9%. Besides, the pKi in experiment [2] was 8.59. On to `O=C(CC1CCc2cc(Br)cc3[nH]c(=O)c(=O)n1c23)Nc1ccc([N+](=O)[O-])cc1` (stereo not given), for which the inhibition in experiment [3] is 21.5%. The same measure, in the same setting: the figure for `O=C(O)CC1CCc2cccc3[nH]c(=O)c(=O)n1c23` (stereo not given) is 30.3%. In the case of `NC(=O)CC1CCc2cc(Br)cc3[nH]c(=O)c(=O)n1c23` (stereo not given), in experiment [1], the inhibition amounted to 28.9%.
